Experimental data published in US20250171457A1, “NITROGEN-CONTAINING HETEROCYCLIC COMPOUND HAVING NRF2 ACTIVATION EFFECT” (CHUGAI SEIYAKU KABUSHIKI KAISHA, priority 2022, published 2025).

The molecules below were run on Nrf2 transcriptional activity (pARE-Luc reporter) in HepG2 cells (assay: In vitro Nrf2 transcriptional activity measurement by ARE-dependent reporter assay in HepG2 cell). Settings: Homo sapiens; HepG2 cells transfected with pARE-Luc, 4 hours at 37° C.; luciferase activity of Example 1-54 or Example 17-23 at 3.75 μM defined as 100%.
Assay type: cell-based, human
Method in brief: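 HepG2 cells transfected with pGL4.37 (pARE-Luc), replated onto compound and incubated 4 h at 37° C; luciferase read by Bright-Glo luminescence. Response normalized to 100% set by a reference compound at 3.75 μM; EC50 from dose-response curve.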

| SMILES | EC50 [nM] |
| --- | --- |
| O=C(O)c1cc(F)c(-c2cccc3c2OCN(C(=O)c2c(Cl)cc(N4CC(N5CCOCC5)C4)cc2Cl)C3)cc1N1C2CCC1COC2 [Compound 4-58, 4-[3-[2,6-Dichloro-4-(3-morpholin-4-ylazetidin-1-yl)benzoyl]-2,4-dihydro-1,3-benzoxazin-8-yl]-5-fluoro-2-(3-oxa-8-azabicyclo[3.2.1]octan-8-yl)benzoic acid] | 5.2 |
| O=C(O)c1cc(F)c(-c2cccc3c2OCN(C(=O)c2c(Cl)cc(N4CCN(C5COC5)CC4)cc2Cl)C3)cc1N1C2CCC1COC2 [Compound 4-59, 4-[3-[2,6-Dichloro-4-[4-(oxetan-3-yl)piperazin-1-yl]benzoyl]-2,4-dihydro-1,3-benzoxazin-8-yl]-5-fluoro-2-(3-oxa-8-azabicyclo[3.2.1]octan-8-yl)benzoic acid] | 12 |
| CN1CCN(c2cc(Cl)c(C(=O)N3COc4c(cccc4-c4cc(N5C6CCC5COC6)c(C(=O)O)cc4F)C3)c(Cl)c2)CC1 [Compound 4-60, 4-[3-[2,6-Dichloro-4-(4-methylpiperazin-1-yl)benzoyl]-2,4-dihydro-1,3-benzoxazin-8-yl]-5-fluoro-2-(3-oxa-8-azabicyclo[3.2.1]octan-8-yl)benzoic acid] | 7.5 |
| COC1COC2(CN(c3cc(Cl)c(C(=O)N4COc5c(cccc5-c5cc(N6C7CCC6COC7)c(C(=O)O)cc5F)C4)c(Cl)c3)C2)OC1 [Compound 5-3, 4-[3-[2,6-Dichloro-4-(7-methoxy-5,9-dioxa-2-azaspiro[3.5]nonan-2-yl)benzoyl]-2,4-dihydro-1,3-benzoxazin-8-yl]-5-fluoro-2-(3-oxa-8-azabicyclo[3.2.1]octan-8-yl)benzoic acid] | 9.5 |
| O=C(O)c1cc(F)c(-c2cccc3c2OCN(C(=O)c2c(Cl)cc(N4CC5(C4)OCCO5)cc2Cl)C3)cc1N1C2CCC1COC2 [Compound 5-4, 4-[3-[2,6-Dichloro-4-(5,8-dioxa-2-azaspiro[3.4]octan-2-yl)benzoyl]-2,4-dihydro-1,3-benzoxazin-8-yl]-5-fluoro-2-(3-oxa-8-azabicyclo[3.2.1]octan-8-yl)benzoic acid] | 2.4 |
| O=C(O)c1cc(F)c(-c2cccc3c2OCN(C(=O)c2c(Cl)cc(N4CC5(C4)OCC4(CC4)CO5)cc2Cl)C3)cc1N1C2CCC1COC2 [Compound 5-5, 4-[3-[2,6-Dichloro-4-(5,10-dioxa-8-azaspiro[2.2.36.23]undecan-8-yl)benzoyl]-2,4-dihydro-1,3-benzoxazin-8-yl]-5-fluoro-2-(3-oxa-8-azabicyclo[3.2.1]octan-8-yl)benzoic acid] | 1 |
| O=C(O)c1cc(F)c(-c2cccc3c2OCN(C(=O)c2c(Cl)cc(N4CC5(C4)OCCCCO5)cc2Cl)C3)cc1N1C2CCC1COC2 [Compound 5-6, 4-[3-[2,6-Dichloro-4-(5,10-dioxa-2-azaspiro[3.6]decan-2-yl)benzoyl]-2,4-dihydro-1,3-benzoxazin-8-yl]-5-fluoro-2-(3-oxa-8-azabicyclo[3.2.1]octan-8-yl)benzoic acid] | 2.3 |
| O=C(O)c1cc(F)c(-c2cccc3c2OCN(C(=O)c2c(Cl)cc(N4CC5(C4)OCC4(CCC4)CO5)cc2Cl)C3)cc1N1C2CCC1COC2 [Compound 5-8, 4-[3-[2,6-Dichloro-4-(6,11-dioxa-9-azadispiro[3.2.37.24]dodecan-9-yl)benzoyl]-2,4-dihydro-1,3-benzoxazin-8-yl]-5-fluoro-2-(3-oxa-8-azabicyclo[3.2.1]octan-8-yl)benzoic acid] | 2 |
| COC1(OC)CC2(CN(c3cc(Cl)c(C(=O)N4COc5c(cccc5-c5cc(N6C7CCC6COC7)c(C(=O)O)cc5F)C4)c(Cl)c3)C2)C1 [Compound 5-11, 4-[3-[2,6-Dichloro-4-(6,6-dimethoxy-2-azaspiro[3.3]heptan-2-yl)benzoyl]-2,4-dihydro-1,3-benzoxazin-8-yl]-5-fluoro-2-(3-oxa-8-azabicyclo[3.2.1]octan-8-yl)benzoic acid] | 3.4 |
| COC1(OC)CN(c2cc(Cl)c(C(=O)N3COc4c(cccc4-c4cc(N5C6CCC5COC6)c(C(=O)O)cc4F)C3)c(Cl)c2)[C@@H]1C [Compound 5-12, 4-[3-[2,6-Dichloro-4-[(2R)-3,3-dimethoxy-2-methylazetidin-1-yl]benzoyl]-2,4-dihydro-1,3-benzoxazin-8-yl]-5-fluoro-2-(3-oxa-8-azabicyclo[3.2.1]octan-8-yl)benzoic acid] | 2.1 |
| COC1CN(C2CN(c3cc(Cl)c(C(=O)N4COc5c(cccc5-c5cc(N6C7CCC6COC7)c(C(=O)O)cc5F)C4)c(Cl)c3)C2)C1 [Compound 5-13, 4-[3-[2,6-Dichloro-4-[3-(3-methoxyazetidin-1-yl)azetidin-1-yl]benzoyl]-2,4-dihydro-1,3-benzoxazin-8-yl]-5-fluoro-2-(3-oxa-8-azabicyclo[3.2.1]octan-8-yl)benzoic acid] | 2.7 |
| C[C@H]1COCCN1C1CN(c2cc(Cl)c(C(=O)N3COc4c(cccc4-c4cc(N5C6CCC5COC6)c(C(=O)O)cc4F)C3)c(Cl)c2)C1 [Compound 5-14, 4-[3-[2,6-Dichloro-4-[3-[(3S)-3-methylmorpholin-4-yl]azetidin-1-yl]benzoyl]-2,4-dihydro-1,3-benzoxazin-8-yl]-5-fluoro-2-(3-oxa-8-azabicyclo[3.2.1]octan-8-yl)benzoic acid] | 2.9 |
| C[C@@H]1COCCN1C1CN(c2cc(Cl)c(C(=O)N3COc4c(cccc4-c4cc(N5C6CCC5COC6)c(C(=O)O)cc4F)C3)c(Cl)c2)C1 [Compound 5-15, 4-[3-[2,6-Dichloro-4-[3-[(3R)-3-methylmorpholin-4-yl]azetidin-1-yl]benzoyl]-2,4-dihydro-1,3-benzoxazin-8-yl]-5-fluoro-2-(3-oxa-8-azabicyclo[3.2.1]octan-8-yl)benzoic acid] | 3.1 |
| COCC1(OC)CN(c2cc(Cl)c(C(=O)N3COc4c(cccc4-c4cc(N5C6CCC5COC6)c(C(=O)O)cc4F)C3)c(Cl)c2)C1 [Compound 6-1, 4-[3-[2,6-Dichloro-4-[3-methoxy-3-(methoxymethyl)azetidin-1-yl]benzoyl]-2,4-dihydro-1,3-benzoxazin-8-yl]-5-fluoro-2-(3-oxa-8-azabicyclo[3.2.1]octan-8-yl)benzoic acid] | 2.1 |
| COC1(C(F)(F)F)CN(c2cc(Cl)c(C(=O)N3COc4c(cccc4-c4cc(N5C6CCC5COC6)c(C(=O)O)cc4F)C3)c(Cl)c2)C1 [Compound 6-2, 4-[3-[2,6-Dichloro-4-[3-methoxy-3-(trifluoromethyl)azetidin-1-yl]benzoyl]-2,4-dihydro-1,3-benzoxazin-8-yl]-5-fluoro-2-(3-oxa-8-azabicyclo[3.2.1]octan-8-yl)benzoic acid] | 2.8 |
| O=C(O)c1cc(F)c(-c2cccc3c2OCN(C(=O)c2c(Cl)cc(N4CC(OCC(F)(F)F)C4)cc2Cl)C3)cc1N1C2CCC1COC2 [Compound 6-3, 4-[3-[2,6-Dichloro-4-[3-(2,2,2-trifluoroethoxy)azetidin-1-yl]benzoyl]-2,4-dihydro-1,3-benzoxazin-8-yl]-5-fluoro-2-(3-oxa-8-azabicyclo[3.2.1]octan-8-yl)benzoic acid] | 5.7 |
| COCC1(F)CN(c2cc(Cl)c(C(=O)N3COc4c(cccc4-c4cc(N5C6CCC5COC6)c(C(=O)O)cc4F)C3)c(Cl)c2)C1 [Compound 6-4, 4-[3-[2,6-Dichloro-4-[3-fluoro-3-(methoxymethyl)azetidin-1-yl]benzoyl]-2,4-dihydro-1,3-benzoxazin-8-yl]-5-fluoro-2-(3-oxa-8-azabicyclo[3.2.1]octan-8-yl)benzoic acid] | 2 |
| CCOC1CN(c2cc(Cl)c(C(=O)N3COc4c(cccc4-c4cc(N5C6CCC5COC6)c(C(=O)O)cc4F)C3)c(Cl)c2)C1 [Compound 6-5, 4-[3-[2,6-Dichloro-4-(3-ethoxyazetidin-1-yl)benzoyl]-2,4-dihydro-1,3-benzoxazin-8-yl]-5-fluoro-2-(3-oxa-8-azabicyclo[3.2.1]octan-8-yl)benzoic acid] | 10 |
| CC(C)OC1CN(c2cc(Cl)c(C(=O)N3COc4c(cccc4-c4cc(N5C6CCC5COC6)c(C(=O)O)cc4F)C3)c(Cl)c2)C1 [Compound 6-6, 4-[3-[2,6-Dichloro-4-(3-propan-2-yloxy-azetidin-1-yl)benzoyl]-2,4-dihydro-1,3-benzoxazin-8-yl]-5-fluoro-2-(3-oxa-8-azabicyclo[3.2.1]octan-8-yl)benzoic acid] | 12 |
| O=C(O)c1cc(F)c(-c2cccc3c2OCN(C(=O)c2c(Cl)cc(N4CC(OC5COC5)C4)cc2Cl)C3)cc1N1C2CCC1COC2 [Compound 6-7, 4-[3-[2,6-Dichloro-4-[3-(oxetan-3-yloxy)azetidin-1-yl]benzoyl]-2,4-dihydro-1,3-benzoxazin-8-yl]-5-fluoro-2-(3-oxa-8-azabicyclo[3.2.1]octan-8-yl)benzoic acid] | 5.7 |
| COCCOC1CN(c2cc(Cl)c(C(=O)N3COc4c(cccc4-c4cc(N5C6CCC5COC6)c(C(=O)O)cc4F)C3)c(Cl)c2)C1 [Compound 6-8, 4-[3-[2,6-Dichloro-4-[3-(2-methoxyethoxy)azetidin-1-yl]benzoyl]-2,4-dihydro-1,3-benzoxazin-8-yl]-5-fluoro-2-(3-oxa-8-azabicyclo[3.2.1]octan-8-yl)benzoic acid] | 2.4 |
| COCCOC1CC2(C1)CN(c1cc(Cl)c(C(=O)N3COc4c(cccc4-c4cc(N5C6CCC5COC6)c(C(=O)O)cc4F)C3)c(Cl)c1)C2 [Compound 6-9, 4-[3-[2,6-Dichloro-4-[6-(2-methoxyethoxy)-2-azaspiro[3.3]heptan-2-yl]benzoyl]-2,4-dihydro-1,3-benzoxazin-8-yl]-5-fluoro-2-(3-oxa-8-azabicyclo[3.2.1]octan-8-yl)benzoic acid] | 2.2 |
| O=C(O)c1cc(F)c(-c2cccc3c2OCN(C(=O)c2c(Cl)cc(N4CC5(CC(OC6COC6)C5)C4)cc2Cl)C3)cc1N1C2CCC1COC2 [Compound 6-10, 4-[3-[2,6-Dichloro-4-[6-(oxetan-3-yloxy)-2-azaspiro[3.3]heptan-2-yl]benzoyl]-2,4-dihydro-1,3-benzoxazin-8-yl]-5-fluoro-2-(3-oxa-8-azabicyclo[3.2.1]octan-8-yl)benzoic acid] | 3.7 |
